Measured values reported in PubChem BioAssay (NCI).
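Where inhibition never reached the appropriate level, the endpoint shown equals the highest concentration tested. Otherwise, values were interpolated linearly from a five-concentration, 48-hour dose response in 96-well plates. GI50 is the concentration that inhibits growth by half. TGI is the concentration that stops growth completely.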 Where a SMILES comes first, the peptide text is derived from it. [ ]: non-standard residue; d: D form. Hiv = CC(C)[C@H](O)C(=O)O

What was measured:
Assay in all cases: DTP human tumour cell line panel, 48 h
SF-268 CNS = system: SF-268 CNS
NCI-H460 lung = system: NCI-H460 lung
RXF 393 renal = system: RXF 393 renal
NCI/ADR-RES ovarian = system: NCI/ADR-RES ovarian
TK-10 renal = system: TK-10 renal
CAKI-1 renal = system: CAKI-1 renal
HCC-2998 colon = system: HCC-2998 colon
HOP-92 NSCLC = system: HOP-92 NSCLC
OVCAR-5 ovarian = system: OVCAR-5 ovarian
NCI-H23 lung = system: NCI-H23 lung
A498 renal = system: A498 renal
SK-MEL-28 melanoma = system: SK-MEL-28 melanoma
786-0 renal = system: 786-0 renal
SR leukemia = system: SR leukemia
UO-31 renal = system: UO-31 renal
OVCAR-4 ovarian = system: OVCAR-4 ovarian
SNB-75 CNS = system: SNB-75 CNS
NCI-H522 lung = system: NCI-H522 lung
SNB-19 CNS = system: SNB-19 CNS
SK-MEL-2 melanoma = system: SK-MEL-2 melanoma
BT-549 breast = system: BT-549 breast
MDA-MB-231 breast = system: MDA-MB-231 breast
MOLT-4 leukemia = system: MOLT-4 leukemia
SK-MEL-5 melanoma = system: SK-MEL-5 melanoma
HL-60(TB) leukemia = system: HL-60(TB) leukemia
RPMI-8226 leukemia = system: RPMI-8226 leukemia
MALME-3M melanoma = system: MALME-3M melanoma
SN12C renal = system: SN12C renal
HCT-116 colon = system: HCT-116 colon
SW-620 colon = system: SW-620 colon
UACC-257 melanoma = system: UACC-257 melanoma
MCF7 breast = system: MCF7 breast
K-562 leukemia = system: K-562 leukemia
HOP-62 NSCLC = system: HOP-62 NSCLC
DU-145 prostate = system: DU-145 prostate
NCI-H226 lung = system: NCI-H226 lung
MDA-MB-435 = system: MDA-MB-435
LOX IMVI melanoma = system: LOX IMVI melanoma
PC-3 prostate = system: PC-3 prostate
UACC-62 melanoma = system: UACC-62 melanoma
T-47D breast = system: T-47D breast
U251 CNS = system: U251 CNS
A549 NSCLC = system: A549 NSCLC
KM12 colon = system: KM12 colon
OVCAR-3 ovarian = system: OVCAR-3 ovarian
HS 578T breast = system: HS 578T breast
OVCAR-8 ovarian = system: OVCAR-8 ovarian
SF-295 CNS = system: SF-295 CNS
IGROV1 ovarian = system: IGROV1 ovarian
SK-OV-3 ovarian = system: SK-OV-3 ovarian
ACHN renal = system: ACHN renal
HT29 colon = system: HT29 colon
SF-539 CNS = system: SF-539 CNS
CCRF-CEM leukemia = system: CCRF-CEM leukemia
HCT-15 colon = system: HCT-15 colon
M14 melanoma = system: M14 melanoma
COLO 205 colon = system: COLO 205 colon
EKVX NSCLC = system: EKVX NSCLC
MDA-N = system: MDA-N

## CC/C(=N/N=C(N)N)c1ccc(NC(=O)Nc2ccc(/C(CC)=N/N=C(N)N)cc2)cc1
SF-268 CNS
  GI50: 12.8 µM
  TGI: > 100 µM
NCI-H460 lung
  GI50: 4.1 µM
  TGI: > 100 µM
RXF 393 renal
  GI50: 7.81 µM
  TGI: 33.2 µM
NCI/ADR-RES ovarian
  GI50: 24.7 µM
  TGI: > 100 µM
TK-10 renal
  GI50: 2.31 µM
  TGI: 9.96 µM
CAKI-1 renal
  GI50: 15.1 µM
  TGI: 39.4 µM
HCC-2998 colon
  GI50: 7.56 µM
  TGI: 36.3 µM
HOP-92 NSCLC
  GI50: 5.67 µM
  TGI: 35.2 µM
OVCAR-5 ovarian
  GI50: 18.8 µM
  TGI: 44.6 µM
NCI-H23 lung
  GI50: 11.5 µM
  TGI: 50.8 µM
A498 renal
  GI50: 36.3 µM
  TGI: > 100 µM
SK-MEL-28 melanoma
  GI50: 12.6 µM
  TGI: 46.9 µM
786-0 renal
  GI50: 9.02 µM
  TGI: 30.9 µM
SR leukemia
  GI50: 2.44 µM
  TGI: 14.9 µM
UO-31 renal
  GI50: 12.4 µM
  TGI: 27.2 µM
OVCAR-4 ovarian
  GI50: 6.08 µM
  TGI: 44.8 µM
SNB-75 CNS
  GI50: 13.6 µM
  TGI: 42.1 µM
NCI-H522 lung
  GI50: 1.74 µM
  TGI: 7.03 µM
SNB-19 CNS
  GI50: 8.55 µM
  TGI: 85 µM
SK-MEL-2 melanoma
  GI50: 4.03 µM
  TGI: 31.2 µM
BT-549 breast
  GI50: 3.83 µM
  TGI: 21.1 µM
MDA-MB-231 breast
  GI50: 6.88 µM
  TGI: 28.1 µM
MOLT-4 leukemia
  GI50: 2.07 µM
  TGI: 6.51 µM
SK-MEL-5 melanoma
  GI50: 2.07 µM
  TGI: > 100 µM
HL-60(TB) leukemia
  GI50: 2.85 µM
  TGI: 21.8 µM
RPMI-8226 leukemia
  GI50: 1.62 µM
  TGI: 8.85 µM
MALME-3M melanoma
  GI50: 8.24 µM
  TGI: 54.5 µM
SN12C renal
  GI50: 3.16 µM
  TGI: 19.4 µM
HCT-116 colon
  GI50: 5.72 µM
  TGI: 25.5 µM
SW-620 colon
  GI50: 8.29 µM
  TGI: 55.6 µM
UACC-257 melanoma
  GI50: 13.8 µM
  TGI: 42 µM
MCF7 breast
  GI50: 3.13 µM
  TGI: > 100 µM
K-562 leukemia
  GI50: 1.06 µM
  TGI: 7.25 µM
HOP-62 NSCLC
  GI50: 10.7 µM
  TGI: 42.6 µM
DU-145 prostate
  GI50: 5.02 µM
  TGI: 30.5 µM
NCI-H226 lung
  GI50: 10.8 µM
  TGI: 39.8 µM
MDA-MB-435
  GI50: 3.72 µM
  TGI: 16.2 µM
LOX IMVI melanoma
  GI50: 9.41 µM
  TGI: 35 µM
PC-3 prostate
  GI50: 6.27 µM
  TGI: 33.7 µM
UACC-62 melanoma
  GI50: 5.13 µM
  TGI: 22.7 µM
T-47D breast
  GI50: 5.81 µM
  TGI: 74.1 µM
U251 CNS
  GI50: 2.64 µM
  TGI: 12.2 µM
A549 NSCLC
  GI50: 5.1 µM
  TGI: 22.4 µM
KM12 colon
  GI50: 3.49 µM
  TGI: 20.1 µM
OVCAR-3 ovarian
  GI50: 6.19 µM
  TGI: 32 µM
HS 578T breast
  GI50: 22.6 µM
  TGI: > 100 µM
OVCAR-8 ovarian
  GI50: 5.95 µM
  TGI: > 100 µM
SF-295 CNS
  GI50: 3.99 µM
  TGI: 19 µM
IGROV1 ovarian
  GI50: 3.15 µM
  TGI: 14.8 µM
SK-OV-3 ovarian
  GI50: 16.5 µM
  TGI: 64.5 µM
ACHN renal
  GI50: 5.78 µM
  TGI: 24.5 µM
HT29 colon
  GI50: 7.12 µM
  TGI: 28.1 µM
SF-539 CNS
  GI50: 8.04 µM
  TGI: 35.9 µM
CCRF-CEM leukemia
  GI50: 5.8 µM
  TGI: 28.7 µM
HCT-15 colon
  GI50: 11.9 µM
  TGI: 33.2 µM
M14 melanoma
  GI50: 10.4 µM
  TGI: 37.4 µM
COLO 205 colon
  GI50: 3.25 µM
  TGI: 21.2 µM
EKVX NSCLC
  GI50: 6.55 µM
  TGI: 39.6 µM

## CC(C)[C@@H]1OC(=O)[C@@H](C)NC(=O)[C@@H]2CCCN2C1=O (cyclo([Hiv]-Pro-[dA]))
SF-268 CNS
  TGI: > 100 µM
NCI-H460 lung
  TGI: > 100 µM
RXF 393 renal
  TGI: > 100 µM
NCI/ADR-RES ovarian
  TGI: > 100 µM
TK-10 renal
  TGI: > 100 µM
CAKI-1 renal
  TGI: > 100 µM
HCC-2998 colon
  TGI: > 100 µM
HOP-92 NSCLC
  TGI: > 100 µM
OVCAR-5 ovarian
  TGI: > 100 µM
NCI-H23 lung
  TGI: > 100 µM
A498 renal
  TGI: > 100 µM
SK-MEL-28 melanoma
  TGI: > 100 µM
786-0 renal
  TGI: > 100 µM
SR leukemia
  TGI: > 100 µM
OVCAR-4 ovarian
  TGI: > 100 µM
SNB-19 CNS
  TGI: > 100 µM
SK-MEL-2 melanoma
  TGI: > 100 µM
MDA-MB-231 breast
  TGI: > 100 µM
MOLT-4 leukemia
  TGI: > 100 µM
SK-MEL-5 melanoma
  TGI: > 100 µM
HL-60(TB) leukemia
  TGI: > 100 µM
MALME-3M melanoma
  TGI: > 100 µM
SN12C renal
  TGI: > 100 µM
HCT-116 colon
  TGI: > 100 µM
SW-620 colon
  TGI: > 100 µM
UACC-257 melanoma
  TGI: > 100 µM
MCF7 breast
  TGI: > 100 µM
HOP-62 NSCLC
  TGI: > 100 µM
MDA-N
  TGI: > 100 µM
DU-145 prostate
  TGI: > 100 µM
NCI-H226 lung
  TGI: > 100 µM
MDA-MB-435
  TGI: > 100 µM
LOX IMVI melanoma
  TGI: > 100 µM
PC-3 prostate
  TGI: > 100 µM
UACC-62 melanoma
  TGI: > 100 µM
T-47D breast
  TGI: > 100 µM
A549 NSCLC
  TGI: > 100 µM
KM12 colon
  TGI: > 100 µM
OVCAR-3 ovarian
  TGI: > 100 µM
HS 578T breast
  TGI: > 100 µM
OVCAR-8 ovarian
  TGI: > 100 µM
SF-295 CNS
  TGI: > 100 µM
IGROV1 ovarian
  TGI: > 100 µM
SK-OV-3 ovarian
  TGI: > 100 µM
ACHN renal
  TGI: > 100 µM
HT29 colon
  TGI: > 100 µM
SF-539 CNS
  TGI: > 100 µM
CCRF-CEM leukemia
  TGI: > 100 µM
HCT-15 colon
  TGI: > 100 µM
M14 melanoma
  TGI: > 100 µM
COLO 205 colon
  TGI: > 100 µM
EKVX NSCLC
  TGI: > 100 µM

## c1ccc2c3nnc(c2c1)SCCCSc1nnc(c2ccccc12)SCCCS3
SF-268 CNS
  TGI: > 100 µM
NCI-H460 lung
  TGI: > 100 µM
RXF 393 renal
  TGI: 94 µM
NCI/ADR-RES ovarian
  TGI: 86.4 µM
TK-10 renal
  TGI: > 100 µM
HCC-2998 colon
  TGI: > 100 µM
HOP-92 NSCLC
  TGI: 94.3 µM
OVCAR-5 ovarian
  TGI: > 100 µM
NCI-H23 lung
  TGI: > 100 µM
A498 renal
  TGI: > 100 µM
SK-MEL-28 melanoma
  TGI: > 100 µM
786-0 renal
  TGI: > 100 µM
SR leukemia
  TGI: > 100 µM
UO-31 renal
  TGI: > 100 µM
OVCAR-4 ovarian
  TGI: 54.3 µM
SNB-75 CNS
  TGI: 50.3 µM
NCI-H522 lung
  TGI: > 100 µM
SNB-19 CNS
  TGI: > 100 µM
SK-MEL-2 melanoma
  TGI: > 100 µM
MDA-MB-231 breast
  TGI: 48.6 µM
MOLT-4 leukemia
  TGI: > 100 µM
SK-MEL-5 melanoma
  TGI: 72.2 µM
HL-60(TB) leukemia
  TGI: > 100 µM
RPMI-8226 leukemia
  TGI: > 100 µM
MALME-3M melanoma
  TGI: 72.1 µM
SN12C renal
  TGI: > 100 µM
HCT-116 colon
  TGI: > 100 µM
SW-620 colon
  TGI: > 100 µM
UACC-257 melanoma
  TGI: > 100 µM
MCF7 breast
  TGI: > 100 µM
K-562 leukemia
  TGI: > 100 µM
HOP-62 NSCLC
  TGI: 52.8 µM
MDA-N
  TGI: > 100 µM
DU-145 prostate
  TGI: > 100 µM
NCI-H226 lung
  TGI: 56.6 µM
MDA-MB-435
  TGI: > 100 µM
LOX IMVI melanoma
  TGI: > 100 µM
PC-3 prostate
  TGI: > 100 µM
UACC-62 melanoma
  TGI: 88.8 µM
T-47D breast
  TGI: > 100 µM
U251 CNS
  TGI: > 100 µM
A549 NSCLC
  TGI: > 100 µM
KM12 colon
  TGI: > 100 µM
OVCAR-3 ovarian
  TGI: > 100 µM
OVCAR-8 ovarian
  TGI: > 100 µM
SF-295 CNS
  TGI: > 100 µM
IGROV1 ovarian
  TGI: > 100 µM
SK-OV-3 ovarian
  TGI: > 100 µM
ACHN renal
  TGI: > 100 µM
HT29 colon
  TGI: > 100 µM
SF-539 CNS
  TGI: 28.3 µM
CCRF-CEM leukemia
  TGI: > 100 µM
HCT-15 colon
  TGI: > 100 µM
M14 melanoma
  TGI: > 100 µM
COLO 205 colon
  TGI: > 100 µM
EKVX NSCLC
  TGI: > 100 µM
